The record followed here is patent US20250270246A1, “LINCOSAMIDES AND USES THEREOF” (President and Fellows of Harvard College, priority 2022, published 2025).

Molecules are shown by their SMILES. Structures can show the parent of a compound that is named as a salt. Where two headings read alike, the source gives them in different places.

The conditions of data set [1]: rcm bond, Grubbs II (20 mol%)/benzoquinone, toluene.
Data set [2] has as its system S. aureus HAV#031, c-ermA. Description: MIC by broth microdilution (CLSI). It counts as cell-based. The note with it: Staphylococcus aureus; c-ermA; CaMHB, 24 h incubation; read-out: MIC S. aureus HAV#031, c-ermA. The essentials:
(§1)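 Cation-adjusted Mueller-Hinton medium, Chelex 100 ion-exchange treated where P. aeruginosa was tested. Twofold series 64 down to 0.06 μg/mL, 2.5% DMSO final, 5×10^5 CFU/mL inoculum, 24 h incubation; endpoint is no visible growth.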
For orientation: In broth dilution the organism is exposed to a series of concentrations in liquid medium.

For another data set, the system named is E. coli HAV#040, LptD. Put plainly: MIC by broth microdilution (CLSI). It is filed as cell-based. The settings on record: Escherichia coli, 24 h, read-out: MIC E. coli HAV#040, LptD. The procedure, abridged: as §1
The next data set deals with S. aureus HAV#216, cfr. Put plainly: MIC by broth microdilution (CLSI). It is filed as cell-based. The note with it: Staphylococcus aureus; cfr; CaMHB, 24 h incubation; read-out: MIC S. aureus HAV#216, cfr. The essentials: as §1
Data set [3] deals with E. coli ATCC 25922 (HAV#006). Put plainly: MIC by broth microdilution (CLSI). It is filed as cell-based. The note with it: HAV#006, ATCC 25922, CaMHB, 24 h incubation; for MIC: Escherichia coli, ATCC25922, 24 h, read-out: MIC E. coli ATCC 25922. The procedure, abridged:
as §1

Data set [4] relates to E. faecalis ATCC 29212 (HAV#005). Put plainly: MIC by broth microdilution (CLSI). The note with it: HAV#005, ATCC 29212, CaMHB, 24 h incubation; for MIC: Enterococcus faecalis, ATCC29212, 24 h, read-out: MIC E. faecalis ATCC 29212. It counts as cell-based. The procedure, abridged:
as §1

Data set [5] relates to S. aureus ATCC 29213 (HAV#001). Put plainly: MIC by broth microdilution (CLSI). It counts as cell-based. The note with it: HAV#001, ATCC 29213, CaMHB, 24 h incubation; for MIC: Staphylococcus aureus, ATCC29213, 24 h, read-out: MIC S. aureus ATCC 29213. The procedure, abridged: as §1
Data set [6] has as its system K. pneumoniae HAV#402, FQ-R. Description: MIC by broth microdilution (CLSI). It is filed as cell-based. The settings on record: Klebsiella pneumoniae; FQ-R; CaMHB, 24 h incubation; read-out: MIC K. pneumoniae HAV#402, FQ-R. The procedure, abridged:
as §1

A further data set concerns E. coli HAV#038, ΔTolC. Put plainly: MIC by broth microdilution (CLSI). It is filed as cell-based. The note with it: Escherichia coli, 24 h, read-out: MIC E. coli HAV#038, ΔTolC. The procedure, abridged:
as §1

Data set [7] deals with A. baumannii ATCC 19606 (HAV#010). Put plainly: MIC by broth microdilution (CLSI). It counts as cell-based. The note with it: HAV#010, ATCC 19606, CaMHB, 24 h incubation; for MIC: Acinetobacter baumannii, ATCC19606, 24 h, read-out: MIC A. baumannii ATCC 19606. The procedure, abridged: as §1
For a further data set, the system named is K. pneumoniae JMI-991193. Put plainly: MIC by broth microdilution (CLSI). It is filed as cell-based. The settings on record: JMI-991193, CaMHB, 24 h incubation. The essentials:
as §1

The subject of the next data set is S. aureus MMX 3035. Description: MIC by broth microdilution (CLSI). It is filed as cell-based. The settings on record: MMX 3035, CaMHB, 24 h incubation. The procedure, abridged:
as §1

Another data set concerns S. aureus Clinical (cfr). Put plainly: MIC by broth microdilution (CLSI). It counts as cell-based. The settings on record: Clinical (cfr), CaMHB, 24 h incubation. The essentials: as §1
A further data set relates to E. coli lptD mutant. Description: MIC by broth microdilution (CLSI). It is filed as cell-based. The note with it: CaMHB, 24 h incubation. The essentials:
as §1

The subject of the next data set is E. coli ΔtolC. Put plainly: MIC by broth microdilution (CLSI). It counts as cell-based. The settings on record: CaMHB, 24 h incubation. The procedure, abridged:
as §1

The test system of the next data set is E. faecium JMI-990536. Description: MIC by broth microdilution (CLSI). It counts as cell-based. The procedure, abridged:
as §1

Where [8] appears, read: from C=CCCCCS[C@H]1O[C@H]([C@H](N[S@](=O)C(C)(C)C)[C@H](C)C=C)[C@H](OC(C)=O)[C@H](OC(C)=O)[C@H]1OC(C)=O, 12-membered ring, 2.0 mM, 0.25 h.

In [1] (setting [8]), `CC(=O)O[C@@H]1[C@H](OC(C)=O)[C@@H](OC(C)=O)[C@@H]2O[C@@H]1[C@H](N[S@](=O)C(C)(C)C)C(C)/C=C/CCCCS2` (stereo partly shown) displayed a ring closure, isolated yield of 64.8%.
Consider `CC(=O)O[C@@H]1[C@H](OC(C)=O)[C@@H](OC(C)=O)[C@@H]2O[C@@H]1[C@H](N[S@](=O)C(C)(C)C)C(C)/C=C\CCCCS2` (stereo partly shown), for which the ring closure, isolated yield in data set [1] (setting [8]) is 6.3%.
In [1] (from C=CCC(CO[Si](C)(C)C(C)(C)C)S[C@H]1O[C@H]([C@@H](CC=C)N[S@](=O)C(C)(C)C)[C@H](OC(=O)c2ccccc2)[C@H](OC(=O)c2ccccc2)[C@H]1OC(=O)c1ccccc1, 10-membered ring, 1.0 mM, 0.25 h), `CC(C)(C)[S@@](=O)N[C@@H]1C/C=C\CC(CO[Si](C)(C)C(C)(C)C)S[C@H]2O[C@H]1[C@H](OC(=O)c1ccccc1)[C@H](OC(=O)c1ccccc1)[C@H]2OC(=O)c1ccccc1` (stereo partly shown) registered a ring closure, isolated yield of 85%.
Turning to `C[C@@H]1/C=C\CCS[C@H]2O[C@H]([C@@H]1N[S@](=O)C(C)(C)C)[C@H](OC(=O)c1ccccc1)[C@H](OC(=O)c1ccccc1)[C@H]2OC(=O)c1ccccc1`, the ring closure, isolated yield in data set [1] (from C=CCCS[C@H]1O[C@H]([C@H](N[S@](=O)C(C)(C)C)[C@H](C)C=C)[C@H](OC(=O)c2ccccc2)[C@H](OC(=O)c2ccccc2)[C@H]1OC(=O)c1ccccc1, 10-membered ring, 0.2 mM, 0.33 h) stood at 19%.
On to `C[C@@H]1/C=C\C[C@@H](CO[Si](C)(C)C(C)(C)C)S[C@H]2O[C@H]([C@@H]1N[S@](=O)C(C)(C)C)[C@H](OC(=O)c1ccccc1)[C@H](OC(=O)c1ccccc1)[C@H]2OC(=O)c1ccccc1`, for which the ring closure, isolated yield in data set [1] (from C=CCC(CO[Si](C)(C)C(C)(C)C)S[C@H]1O[C@H]([C@H](N[S@](=O)C(C)(C)C)C(C)C=C)[C@H](OC(=O)c2ccccc2)[C@H](OC(=O)c2ccccc2)[C@H]1OC(=O)c1ccccc1, 10-membered ring, 2.0 mM, 0.25 h) came out at 85%.
`C[C@H]1/C=C/CCS[C@H]2O[C@H]([C@@H]1N[S@](=O)C(C)(C)C)[C@H](OC(=O)c1ccccc1)[C@H](OC(=O)c1ccccc1)[C@H]2OC(=O)c1ccccc1` came in with a ring closure, isolated yield in data set [1] (from C=CCCS[C@H]1O[C@H]([C@H](N[S@](=O)C(C)(C)C)[C@@H](C)C=C)[C@H](OC(=O)c2ccccc2)[C@H](OC(=O)c2ccccc2)[C@H]1OC(=O)c1ccccc1, 10-membered ring, 0.2 mM, 0.33 h) of 6%.
Molecule `O=C(N[C@@H]1C/C=C\CCS[C@H]2O[C@H]1[C@H](O)[C@H](O)[C@H]2O)C(F)(F)F` yielded a ring closure, isolated yield in data set [1] (from C=CCCS[C@H]1O[C@H]([C@@H](CC=C)NC(=O)C(F)(F)F)[C@H](O)[C@H](O)[C@H]1O, 10-membered ring, 0.4 mM, 0.33 h) of 39%.
The molecule `CC(=O)O[C@@H]1[C@H](OC(C)=O)[C@@H](OC(C)=O)[C@@H]2O[C@@H]1[C@H](N[S@](=O)C(C)(C)C)C(C)/C=C/CCCS2` (mixture of isomers) gave a ring closure, isolated yield in data set [1] (from C=CCCCS[C@H]1O[C@H]([C@H](N[S@](=O)C(C)(C)C)[C@H](C)C=C)[C@H](OC(C)=O)[C@H](OC(C)=O)[C@H]1OC(C)=O, 11-membered ring, 1.9 mM, 0.25 h) of 85%.
Take `CC(C)C[C@@H]1CCO[C@@H]2[C@H](CN[C@@H]2C(=O)N[C@@H]2CC(C)(C)/C=C/CS[C@H]3O[C@H]2[C@H](O)[C@H](O)[C@H]3O)C1` [FSA1503085, (4S,5aS,8S,8aR)-4-isobutyl-N-((1R,8R,9R,10R,11S,12R,E)-10,11,12-trihydroxy-6,6-dimethyl-13-oxa-2-thiabicyclo[7.3.1]tridec-4-en-8-yl) octahydro-2H-oxepino[2,3-c]pyrrole-8-carboxamide formate salt]: the MIC in data set [2] came out at 32 µg/mL; in the data set with E. coli HAV#040, LptD, 8 µg/mL; in the data set on S. aureus HAV#216, cfr, 8 µg/mL; in data set [3], 64 µg/mL; in data set [4], 0.25 µg/mL; in data set [5], 0.25 µg/mL. In addition, the MIC in data set [6] was more than 64 µg/mL; in the data set with E. coli HAV#038, ΔTolC it was 4 µg/mL; in data set [7], 64 µg/mL.
As to `CC(C)C[C@@H]1CCO[C@@H]2[C@H](CN[C@@H]2C(=O)N[C@H]2[C@H]3O[C@H](SCCCCC2(C)C)[C@H](O)[C@@H](O)[C@H]3O)C1` [FSA1504068, (4S,5aS,8S,8aR)-4-isobutyl-N-((1R,8R,9R,10R,11S,12R)-10,11,12-trihydroxy-7,7-dimethyl-13-oxa-2-thiabicyclo[7.3.1]tridecan-8-yl) octahydro-2H-oxepino[2,3-c]pyrrole-8-carboxamide formate salt], the MIC in [2] is more than 64 µg/mL; in the data set with E. coli HAV#040, LptD, 64 µg/mL; in the data set on S. aureus HAV#216, cfr, more than 64 µg/mL; in data set [3], 64 µg/mL; in [4], 2 µg/mL; in data set [5], 0.5 µg/mL. The MIC in data set [6] is more than 64 µg/mL; in the data set with E. coli HAV#038, ΔTolC, 32 µg/mL; in data set [7] it was more than 64 µg/mL.
On to `CC(C)C[C@@H]1CCO[C@@H]2[C@H](CN[C@@H]2C(=O)N[C@H]2[C@H]3O[C@H](SCCC/C=C/[C@H]2C)[C@H](O)[C@@H](O)[C@H]3O)C1` [FSA1609095, (4S,5aS,8S,8aR)-4-isobutyl-N-((1R,8R,9R,10R,11R,12S,13R,E)-11,12,13-trihydroxy-8-methyl-14-oxa-2-thiabicyclo[8.3.1]tetradec-6-en-9-yl) octahydro-2H-oxepino[2,3-c]pyrrole-8-carboxamide formate salt], for which the “MIC K. pneumoniae JMI-991193” value in the data set on K. pneumoniae JMI-991193 (formate salt) stood at 16 µg/mL. Further, in data set [3] (formate salt), the “MIC E. coli ATCC 25922” value is 8 µg/mL. In addition, the “MIC E. faecalis ATCC 29212” value in [4] (formate salt) is 0.125 µg/mL. Further, in the data set with S. aureus MMX 3035 (formate salt), the “MIC S. aureus MMX 3035” value turned out to be 2 µg/mL. Also, the “MIC S. aureus Clinical (cfr)” value in the data set on S. aureus Clinical (cfr) (formate salt) came to 8 µg/mL. Besides, the “MIC E. coli lptD mutant” value in the data set on E. coli lptD mutant (lptD mutant / ΔlptD mutant, formate salt) was determined as 0.5 µg/mL. Moreover, in data set [5] (formate salt), the “MIC S. aureus ATCC 29213” value was not above 0.06 µg/mL. The “MIC E. coli ΔtolC” value in the data set with E. coli ΔtolC (ΔtolC, formate salt) came to 4 µg/mL. Also, the “MIC E. faecium JMI-990536” value in the data set with E. faecium JMI-990536 (JMI-990536, CaMHB, 24 h incubation, formate salt) was 2 µg/mL. Besides, in data set [7] (formate salt), the “MIC A. baumannii ATCC 19606” value turned out to be 4 µg/mL.
For `CC(C)C[C@@H]1CCO[C@@H]2[C@H](CN[C@@H]2C(=O)N[C@H]2[C@H]3O[C@H](SCCC/C=C\[C@H]2C)[C@H](O)[C@@H](O)[C@H]3O)C1` [FSA1609096, (4S,5aS,8S,8aR)-4-isobutyl-N-((1R,8R,9R,10R,11R,12S,13R,Z)-11,12,13-trihydroxy-8-methyl-14-oxa-2-thiabicyclo[8.3.1]tetradec-6-en-9-yl) octahydro-2H-oxepino[2,3-c]pyrrole-8-carboxamide formate salt], the MIC in the data set with K. pneumoniae JMI-991193 (Klebsiella pneumoniae, JMI991193, 24 h, read-out: MIC K. pneumoniae JMI-991193) is 8 µg/mL; in data set [3], 2 µg/mL; in [4], not above 0.06 µg/mL; in the data set with S. aureus MMX 3035 (Staphylococcus aureus, MMX3035, 24 h, read-out: MIC S. aureus MMX 3035) it was 0.25 µg/mL; in the data set with S. aureus Clinical (cfr) (Staphylococcus aureus, 24 h, read-out: MIC S. aureus Clinical (cfr)), 0.25 µg/mL; in the data set on E. coli lptD mutant (Escherichia coli, 24 h, read-out: MIC E. coli lptD mutant, lptD mutant / ΔlptD mutant), 0.125 µg/mL. The MIC in data set [5] was not above 0.06 µg/mL; in the data set with E. coli ΔtolC (Escherichia coli, 24 h, read-out: MIC E. coli ΔtolC, ΔtolC), 0.25 µg/mL; in the data set on E. faecium JMI-990536 (Enterococcus faecium, JMI990536, 24 h, read-out: MIC E. faecium JMI-990536), 0.125 µg/mL; in data set [7], 1 µg/mL.
